The subject of one assay is MOLM14 cells. The assay is described as follows: Proliferation assay (spheroid assay) in MOLM14. Type of assay: cell-based. The following applies: Homo sapiens, MOLM-14, 192 h; MOLM14 (MLL-AF9), 8 days, confluence as measure of spheroid size; read-out: spheroid assay_OneTime MOLM14 IC50. Here is the method: The anti-proliferative effect of menin/MLL protein/protein interaction inhibitor test compounds was assessed in human leukemia cell lines. The cell line MOLM14 harbors a MLL translocation and expresses the MLL fusion proteins MLL-AF9, respectively, as well as the wildtype protein from the second allele. […] KO-52 was used as a control cell line containing two MLL (KMT2A) wildtype alleles in order to exclude compounds that display general cytotoxic effects.
MOLM14 cells were cultured in RPMI-1640 (Sigma Aldrich) supplemented with 10% heat-inactivated fetal bovine serum (HyClone), 2 mM L-glutamine (Sigma Aldrich) and 50 µg/ml gentamycin (Gibco). KO-52 cell lines were propagated in alpha-MEM (Sigma Aldrich) supplemented with 20% heat-inactivated fetal bovine serum (HyClone), 2 mM L-glutamine (Sigma Aldrich) and 50 µg/ml gentamycin (Gibco).
In order to assess the anti-proliferative effects, 200 MOLM14 cells, or 300 KO-52 cells were seeded in 200 μl media per well in 96-well round bottom, ultra-low attachment plates (Costar, catalogue number 7007). Cell seeding numbers were chosen based on growth curves to ensure linear growth throughout the experiment. Test compounds were added at different concentrations and the DMSO content was normalized to 0.3%. Cells were incubated for 8 days at 37° C. and 5% CO2. Spheroid like growth was measured in real-time by live-cell imaging (IncuCyteZOOM, Essenbio, 4× objective) acquiring images at day 8. Confluence (%) as a measure of spheroid size was determined using an integrated analysis tool.
In order to determine the effect of the test compounds over time, the confluence in each well as a measure of spheroid size, was calculated. Confluence of the highest dose of a reference compound was used as baseline for the LC (Low control) and the confluence of DMSO treated cells was used as 0% cytotoxicity (High Control, HC).
Absolute IC50 values were calculated as percent change in confluence as follows:
LC=Low Control: cells treated with e.g. 1 μM of the cytotoxic agent staurosporin, or e.g. cells treated with a high concentration of an alternative reference compound
GraphPad Prism (version 7.00) was used to calculate the IC50. Dose-response equation was used for the plot of % Effect vs Log10 compound concentration with a variable slope and fixing the maximum to 100% and the minimum to 0%.

A further assay addresses T1, Menin/MLL (Homo sapiens, UniProt O00255, T541A).
T1 construct: Menin (a.a 1-610-6xhis tag)
T1 sequence (O00255 with tags, fused parts or gaps T541A): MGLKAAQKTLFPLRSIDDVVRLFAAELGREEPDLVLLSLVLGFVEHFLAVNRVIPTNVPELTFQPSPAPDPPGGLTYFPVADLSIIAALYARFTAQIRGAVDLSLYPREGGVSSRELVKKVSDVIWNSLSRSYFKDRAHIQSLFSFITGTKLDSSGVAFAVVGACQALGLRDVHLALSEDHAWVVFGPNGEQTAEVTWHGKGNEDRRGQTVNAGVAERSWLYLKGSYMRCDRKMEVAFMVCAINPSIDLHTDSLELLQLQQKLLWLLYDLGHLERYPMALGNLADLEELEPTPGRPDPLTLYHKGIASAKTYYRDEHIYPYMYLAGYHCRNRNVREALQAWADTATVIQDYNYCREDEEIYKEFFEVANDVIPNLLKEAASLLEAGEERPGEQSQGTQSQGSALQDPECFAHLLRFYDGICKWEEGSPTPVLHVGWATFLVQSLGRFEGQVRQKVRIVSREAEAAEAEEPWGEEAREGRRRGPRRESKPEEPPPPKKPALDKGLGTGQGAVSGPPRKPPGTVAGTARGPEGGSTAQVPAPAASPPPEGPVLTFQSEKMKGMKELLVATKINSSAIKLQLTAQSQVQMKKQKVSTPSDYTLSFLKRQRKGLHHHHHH
The assay is described as follows: Menin/MLL homogenous time-resolved fluorescence (HTRF) assay. The following applies: 30 min incubation of test compound with terbium chelate-labeled menin; FITC-MBM1 peptide. In kind it is binding. Here is the method:
1) Menin/MLL homogenous time-resolved fluorescence (HTRF) assay
To an untreated, white 384-well microtiter plate was added 40 nL 200X test compound in DMSO and 4 μL 2X terbium chelate-labeled menin (vide infra for preparation) in assay buffer (40 mM Tris-HCl, pH 7.5, 50 mM NaCl, 1 mM DTT (dithiothreitol) and 0.05% Pluronic F-127). After incubation of test compound and terbium chelate-labeled menin for 30 min at ambient temperature, 4 μL 2X FITC-MBM1 peptide (FITC-β-alanine-SARWRFPARPGT-NH2 (SEQ ID NO: 2)) (“FITC” means fluorescein isothiocyanate) in assay buffer was added, the microtiter plate centrifuged at 1000 rpm for 1 min and the assay mixtures incubated for 15 min at ambient temperature. The relative amount of menin FITC--MBM1 complex present in an assay mixture is determined by measuring the homogenous time-resolved fluorescence (HTRF) of the terbium/FITC donor/acceptor fluorphore pair using an EnVision microplate reader (ex. 337 nm/terbium em. 490 nm/FITC em. 520 nm) at ambient temperature. The degree of fluorescence resonance energy transfer (the HTRF value) is expressed as the ratio of the fluorescence emission intensities of the FITC and terbium fluorophores (F^em 520 nm/F^em 490 nm). The final concentrations of reagents in the binding assay are 200 pM terbium chelate-labeled menin, 75 nM FITC-MBM1 peptide and 0.5% DMSO in assay buffer. Dose-response titrations of test compounds are conducted using an 11 point, four-fold serial dilution scheme, starting typically at 10 μM.
Compound potencies were determined by first calculating % inhibition at each compound concentration according to equation 1: […]
Where LC and HC are the HTRF values of the assay in the presence or absence of a saturating concentration of a compound that competes with FITC-MBM1 for binding to menin, and HTRF^compound is the measured HTRF value in the presence of the test compound. HC and LC HTRF values represent an average of at least 10 replicates per plate.
Where Bottom and Top are the lower and upper asymptotes of the dose-response curve, respectively, IC50 is the concentration of compound that yields 50% inhibition of signal and h is the Hill coefficient. IC50 values below 0.1 nM in the HTRF assay were reported as 0.1 nM in the Table below (detection limit).
Preparation of Terbium cryptate labeling of Menin: Menin (a.a 1-610-6xhis tag, 2.3 mg/mL in 20 mM Hepes (2-[4-(2-Hydroxyethyl)-1-piperazinyl]ethane sulfonic acid), 80 mM NaCl, 5 mM DTT (Dithiothreitol), pH 7.5) was labeled with terbium cryptate as follows. 200 μg of Menin was buffer exchanged into lx Hepes buffer. 6.67 μM Menin was incubated with 8-fold molar excess NHS (N-hydroxysuccinimide)-terbium cryptate for 40 minutes at room temperature. Half of the labeled protein was purified away from free label by running the reaction over a NAP5 column with elution buffer (0.1M Hepes, pH 7+0.1% BSA (bovine serum albumin)). The other half was eluted with 0.1 M phosphate buffered saline (PBS), pH7. 400 μl of eluent was collected for each, aliquoted and frozen at −80° C. The final concentration of terbium-labeled Menin protein was 115 μg/mL in Hepes buffer and 85 μg/mL in PBS buffer, respectively.
A general note: Time-resolved FRET reads energy transfer from a long-lived donor to a nearby acceptor.

This is an account of results in patent US20250333421A1, “PYRIDAZINES OR 1,2,4-TRIAZINES SUBSTITUTED BY SPIROCYCLIC AMINES” (Janssen Pharmaceutica NV, priority 2021, published 2025).

pIC50: −log10 of the molar value.

For the molecule `CCN(C(=O)c1cc(F)ccc1Oc1nncnc1N1CCC2(C1)CN(C(CCCNCCSC)C(C)C)C2)C(C)C` (single isomer, unassigned) [Compound 3], the negative-log IC50 (pIC50) in the assay on MOLM14 cells is 8.30.
Regarding `CCN(C(=O)c1cc(F)ccc1Oc1nncnc1N1CCC2(C1)CN(C(CCCNCCOC(F)(F)F)C(C)C)C2)C(C)C` (single isomer, unassigned) [Compound 4], the figures for the pIC50 against Menin/MLL and in the assay with MOLM14 cells were 9.68 and 7.68, respectively.
The matching figures for `CCN(C(=O)c1cc(F)ccc1Oc1nncnc1N1CCC2(C1)CN(C(CCCN(C)CCOCCN)C(C)C)C2)C(C)C` (single isomer, unassigned) [Compound 5]: 9.96 and 6.66.
Turning to `CCN(C(=O)c1cc(F)ccc1Oc1nncnc1N1CCC2(C1)CN(C(CCCN(C)CCOCCCCN)C(C)C)C2)C(C)C` (single isomer, unassigned) [Compound 6], the negative-log IC50 (pIC50) in the assay on MOLM14 cells was 7.00.
Turning to `CCN(C(=O)c1cc(F)ccc1Oc1nncnc1N1CCC2(C1)CN(C(CCCNCCOC(F)F)C(C)C)C2)C(C)C` (single isomer, unassigned) [Compound 7], the values for the negative-log IC50 (pIC50) against Menin/MLL and in the assay on MOLM14 cells were 9.92 and 8.15, respectively.
Turning to `CCN(C(=O)c1cc(F)ccc1Oc1nncnc1N1CCC2(C1)CN(C(CCCN(C)CCOC(F)F)C(C)C)C2)C(C)C` (single isomer, unassigned) [Compound 8], the pIC50 is 9.74 against Menin/MLL and 7.80 in the assay on MOLM14 cells.
As to `COCCN(C)CCC[C@H](C(C)C)N1CC2(CCN(c3ncnnc3Oc3ccc(F)cc3C(=O)N(CCN)C(C)C)C2)C1` (single isomer, unassigned) [Compound 9], in the assay on MOLM14 cells, the pIC50 is 6.72.
Take `COCCN(C)CCC[C@H](C(C)C)N1CC2(CCN(c3ncnnc3Oc3ccc(F)cc3C(=O)N(CCCCN)C(C)C)C2)C1` (single isomer, unassigned) [Compound 10]: in the assay with MOLM14 cells, the pIC50 was 6.34.
For the molecule `C#CCN(C)CCCC(C(C)C)N1CC2(CCN(c3ncnnc3Oc3ccc(F)cc3C(=O)N(CC)C(C)C)C2)C1` (single isomer, unassigned) [Compound 11], the pIC50 in the assay with MOLM14 cells is 7.22.
Turning to `C=CCN(C)CCCC(C(C)C)N1CC2(CCN(c3ncnnc3Oc3ccc(F)cc3C(=O)N(CC)C(C)C)C2)C1` (single isomer, unassigned) [Compound 12], the pIC50 in the assay on MOLM14 cells is 7.54.
In turn, `CCN(C(=O)c1cc(F)ccc1Oc1nncnc1N1CCC2(C1)CN(C(CCCN(C)CCOC)C(C)(C)C)C2)C(C)C` (single isomer, unassigned) [Compound 13a] gave a negative logarithm of the IC50 (pIC50) on Menin/MLL of 8.71.
On to `CCN(C(=O)c1cc(F)ccc1Oc1nncnc1N1CCC2(C1)CN(C(CCCN(C)CCOC)C(C)(C)C)C2)C(C)C` (single isomer, unassigned) [Compound 13b], for which the pIC50 in the assay with MOLM14 cells was 7.68.
On Menin/MLL, `CCN(CC(C)O)C(=O)c1cc(F)ccc1Oc1nncnc1N1CCC2(C1)CN(C(CCCN(C)CCOC)C(C)C)C2` (single isomer, unassigned) [Compound 16] gave a negative logarithm of the IC50 (pIC50) of 8.53.
On the same count and under the same terms, with `CCN(CC(C)O)C(=O)c1cc(F)ccc1Oc1nncnc1N1CCC2(C1)CN(C(CCCN(C)CCOC)C(C)C)C2` (single isomer, unassigned) [Compound 17] the figure was 7.10; with `CCN(C[C@@H](C)O)C(=O)c1cc(F)ccc1Oc1nncnc1N1CCC2(C1)CN([C@H](CCCN(C)CCOC)C(C)C)C2` (single isomer, unassigned) [Compound 18], 7.45.
With `CCN(C(=O)c1cc(F)ccc1Oc1nncnc1N1CCC2(C1)CN([C@H](CCN(C)CCS(N)(=O)=O)C(C)C)C2)C(C)C` (single isomer, unassigned) [Compound 20], the figures for the pIC50 against Menin/MLL and in the assay with MOLM14 cells were 9.54 and 6.37, respectively.
The molecule `CC(C)N(C(=O)c1cc(F)ccc1Oc1nncnc1N1CCC2(C1)CN(C(CC(O)CN(C)C)C(C)(C)C)C2)C(C)C` (single isomer, unassigned) [Compound 22] gave a negative-log IC50 (pIC50) against Menin/MLL of 7.74.
The same measure, in the same setting: with `CC(C)N(C(=O)c1cc(F)ccc1Oc1nncnc1N1CCC2(C1)CN(C(CC(O)CN(C)C)C(C)(C)C)C2)C(C)C` (single isomer, unassigned) [Compound 23] the figure was 8.34; with `CCN(C)C[C@H](O)C[C@@H](N1CC2(CCN(c3ncnnc3Oc3ccc(F)cc3C(=O)N(CC)C(C)C)C2)C1)C(C)(C)C` (single isomer, unassigned) [Compound 24], 7.45.
On the same count and under the same terms, with `CCN(C)C[C@@H](O)C[C@H](N1CC2(CCN(c3ncnnc3Oc3ccc(F)cc3C(=O)N(CC)C(C)C)C2)C1)C(C)(C)C` (single isomer, unassigned) [Compound 25] the figure was 8.19.
As to `CCN(CC(C)O)C(=O)c1cc(F)ccc1Oc1nncnc1N1CCC2(C1)CN(C(CCCN(C)CCOC)C(C)C)C2` (stereo not shown) [Compound 14], the negative logarithm of the IC50 (pIC50) was 8.18 against Menin/MLL and less than 6.03 with MOLM14 cells.
The matching figures for `COCCN(C)CCC[C@H](C(C)C)N1CC2(CCN(c3ncnnc3Oc3ccc(F)cc3C(=O)N(CCNC(C)=O)C(C)C)C2)C1` [Compound 15]: 9.48 and 6.33.
For `COCCN(C)CCC[C@H](C(C)C)N1CC2(CCN(c3ncnnc3Oc3ccc(F)cc3C(=O)N(CCO)C(C)C)C2)C1` [Compound 19], the negative-log IC50 (pIC50) in the assay on MOLM14 cells was 7.49.
Regarding `CCN(C(=O)c1cc(F)cc(Br)c1Oc1nncnc1N1CCC2(C1)CN([C@H](CCCN(C)CCOC)C(C)C)C2)C(C)C` [Compound 21], the pIC50 against Menin/MLL was 7.86.

What is called pIC50 is the negative decadic logarithm of the IC50, by convention in mol/L.
